Assay results as given in patent publication US9617289B2, “RSV antiviral compounds” (JANSSEN R&D IRELAND, priority 2012, dated 2017).
Read-outs that look alike come from different tables or passages of the source.

Tests used:
[1] = tested on: rgRSV224 virus; experiment: Antiviral activity: inhibition of rgRSV224 (GFP-expressing RSV) replication in HeLa cells; format: cell-based, respiratory syncytial virus; conditions: for EC50: human respiratory syncytial virus, HeLa, 72 h; for pEC50: rgRSV224 (MOI=0.02) in HeLa cells, GFP expression three days post-virus exposure
How it was run: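 HeLa cells infected with GFP-expressing rgRSV224 at MOI 0.02 alongside 4-fold compound dilutions in duplicate (0.5% DMSO). Incubated 3 days at 37 °C; EC50 taken as 50% inhibition of GFP expression by laser microscopy. CC50 measured in parallel uninfected cells by ATP content after 3 days; SI = CC50/EC50.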

[2] = read-out: pEC50, rgRSV224 (MOI=0.02) in HeLa cells, GFP expression three days post-virus exposure (converted)
[3] = read-out: RSV-wt_pEC50, rgRSV224 (MOI=0.02) in HeLa cells, GFP expression three days post-virus exposure

SMILES | EC50 [1, 2] [nM] | melting point [°C] | pEC50 [1] | EC50 [1, 3] [nM]
O=C1N(Cc2nc3cc(Cl)ccc3n2CCCC(F)(F)F)c2cc(F)ccc2C12CCOCC2 [Compound 71, 1-((5-chloro-1-(4,4,4-trifluorobutyl)-1H-benzo[d]imidazol-2-yl)methyl)-6-fluoro-2′,3′,5′,6′-tetrahydrospiro[indoline-3,4′-pyran]-2-one] | 3.16 | 172.7 |  | 
CC(=O)N1CC2(C1)C(=O)N(Cc1nc3cc(Cl)ccc3n1CCCS(C)(=O)=O)c1ccccc12 [Compound 72, 1-acetyl-1′-((5-chloro-1-(3-(methylsulfonyl)propyl)-1H-benzo[d]imidazol-2-yl)methyl)spiro[azetidine-3,3′-indolin]-2′-one] |  | 226.51 | 9.6 | 
CC(C)(O)C(=O)N1CC2(C1)C(=O)N(Cc1cc3cc(Cl)ccc3n1CCCC#N)c1ccccc12 [Compound 73, 4-(5-chloro-2-((1-(2-hydroxy-2-methylpropanoyl)-2′-oxospiro[azetidine-3,3′-indolin]-1′-yl)methyl)-1H-indol-1-yl)butanenitrile] | 0.501 | 89.86 |  | 
O=C1N(Cc2nc3nc(Cl)ccc3n2CCCC(F)(F)F)c2cnccc2C12CCOCC2 [Compound 75, 1′-((5-chloro-1-(4,4,4-trifluorobutyl)-1H-imidazo[4,5-b]-pyridin-2-yl)methyl)-2,3,5,6-tetrahydrospiro[pyran-4,3′-pyrrolo[2,3-c]pyridin]-2′(1′H)-one] |  | 188.67 | 8.3 | 
N#CCCCn1c(CN2C(=O)C3(CCN(C(=O)OC4COC4)CC3)c3ccncc32)cc2cc(Cl)ccc21 [Compound 80, oxetan-3-yl 1′-((5-chloro-1-(3-cyanopropyl)-1H-indol-2-yl)-methyl)-2′-oxo-1′,2′-dihydro[spiropiperidine-4,3′-pyrrolo-[2,3-c]pyridine]-1-carboxylate] | < 0.158 | 208.24 |  | 
N#CCCCn1c(CN2C(=O)C3(CCN(S(=O)(=O)C4CC4)CC3)c3ccncc32)cc2cc(Cl)ccc21 [Compound 81, 4-(5-chloro-2-((1-(cyclopropylsulfonyl)-2′-oxospiro-[piperidine-4,3′-pyrrolo[2,3-c]pyridin]-1′(2′H)-yl)methyl)-1H-indol-1-yl)butanenitrile] | < 0.158 | 93.04 |  | 
N#CCCCn1c(CN2C(=O)C3(CCN(C(=O)OC4COC4)CC3)c3ccncc32)nc2cc(Cl)ccc21 [Compound 82, oxetan-3-yl 1′-((5-chloro-1-(3-cyanopropyl)-1H-benzo[d]-imidazol-2-yl)methyl)-2′-oxo-1′,2′-dihydrospiro[piperidine-4,3′-pyrrolo[2,3-c]pyridine]-1-carboxylate] | < 0.158 | 203.41 |  | 
CC(=O)N1CCC2(CC1)C(=O)N(Cc1nc3cc(Cl)ccc3n1CCCC#N)c1cnccc12 [Compound 83, 4-(2-((1-acetyl-2′-oxospiro[piperidine-4,3′-pyrrolo[2,3-c]-pyridin]-1′(2′H)-yl)methyl)-5-chloro-1H-benzo[d]imidazol-1-yl)butanenitrile] | < 0.158 | 223.53 |  | 
CS(=O)(=O)CCCn1c(CN2C(=O)C3(CCN(S(=O)(=O)C4CC4)CC3)c3ccncc32)nc2cc(Cl)ccc21 [Compound 85, 1′-((5-chloro-1-(3-(methylsulfonyl)propyl)-1H-benzo[d]-imidazol-2-yl)methyl)-1-(cyclopropylsulfonyl)spiro-[piperidine-4,3′-pyrrolo[2,3-c]pyridin]-2′(1′H)-one] | < 0.158 | 150.42 |  | 
CS(=O)(=O)CCCn1c(CN2C(=O)C3(CCN(C(=O)C4CC4)CC3)c3ccncc32)nc2cc(Cl)ccc21 [Compound 90, 1′-({5-Chloro-1-[3-(methylsulfonyl)propyl]-1H-benzimidazol-2-yl}methyl)-1-(cyclopropylcarbonyl)spiro[piperidine-4,3′-pyrrolo[2,3-c]pyridin]-2′(1′H)-one] |  | 208.64 |  | 0.0468
CS(=O)(=O)N1CC2(C1)C(=O)N(Cc1nc3cc(Cl)ccc3n1CCCC#N)c1ccccc12 [Compound 94, 4-(5-Chloro-2-{[1-(methylsulfonyl)-2′-oxospiro[azetidine-3,3′-indol]-1′(2′H)-yl]methyl}-1H-benzimidazol-1-yl)-butanenitrile] |  | 214.11 |  | 0.129
CS(=O)(=O)CCCn1c(CN2C(=O)C3(CCN(S(=O)(=O)c4cccs4)CC3)c3ccccc32)nc2cc(Cl)ccc21 [Compound 102] |  | 233.06 |  | 1.45
CNC(=O)OC1CC2(C1)C(=O)N(Cc1nc3cc(Cl)ccc3n1CCCS(C)(=O)=O)c1ccccc12 [Compound 104, (1R,3R)-1′-((5-chloro-1-(3-(methylsulfonyl)propyl)-1H-benzo[d]imidazol-2-yl)methyl)-2′-oxospiro[cyclobutane-1,3′-indoline]-3-yl methylcarbamate] |  | 204.17 |  | 0.0229
CS(=O)(=O)N1CCC2(CC1)C(=O)N(Cc1cc3cc(Cl)ccc3n1CCCC#N)c1cnccc12 [Compound 105, 4-(5-Chloro-2-{[1-(methylsulfonyl)-2′-oxospiro[piperidine-4,3′-pyrrolo[2,3-c]pyridin]-1′(2′H)-yl]methyl}-1H-indol-1-yl)butanenitrile] |  | 145.3 |  | 0.0832
CC(=O)NS(=O)(=O)N1CCC2(CC1)C(=O)N(Cc1cc3cc(Cl)ccc3n1CCCCF)c1cnccc12 [Compound 114, N-[(1′-{[5-Chloro-1-(4-fluorobutyl)-1H-indol-2-yl]methyl}-2′-oxo-1′,2′-dihydro-1H-spiro[piperidine-4,3′-pyrrolo[2,3-c]-pyridin]-1-yl)sulfonyl]acetamide] |  | 236.92 |  | 0.427
CC(=O)NS(=O)(=O)N1CC2(C1)C(=O)N(Cc1cc3cc(Cl)ccc3n1CCCC#N)c1ccccc12 [Compound 117, N-[(1′-{[5-Chloro-1-(3-cyanopropyl)-1H-indol-2-yl]methyl}-2′-oxo-1′,2′-dihydro-1H-spiro[azetidine-3,3′-indol]-1-yl)sulfonyl]acetamide] |  | 182.85 |  | 10
CC(C)NC(=O)N[C@H]1C[C@]2(C1)C(=O)N(Cc1nc3cc(Cl)ccc3n1CCCC#N)c1ccccc12 [Compound 143, 1-((1s,3s)-1′-((5-chloro-1-(3-cyanopropyl)-1H-benzo[d]imidazol-2-yl)methyl)-2′-oxospiro[cyclobutane-1,3′-indolin]-3-yl)-3-isopropylurea] |  | 242.49 |  | 3.31
CC(C)NC(=O)N[C@H]1C[C@@]2(C1)C(=O)N(Cc1nc3cc(Cl)ccc3n1CCCC#N)c1ccccc12 [Compound 144, 1-((1r,3r)-1′-((5-chloro-1-(3-cyanopropyl)-1H-benzo[d]imidazol-2-yl)methyl)-2′-oxospiro[cyclobutane-1,3′-indolin]-3-yl)-3-isopropylurea] |  | 219.9 |  | 0.229
CC(=O)N[C@H]1C[C@]2(C1)C(=O)N(Cc1nc3cc(Cl)ccc3n1CCCC#N)c1ccccc12 [Compound 145, N-((1s,3s)-1′-((5-chloro-1-(3-cyanopropyl)-1H-benzo[d]imidazol-2-yl)methyl)-2′-oxospiro[cyclobutane-1,3′-indolin]-3-yl)acetamide] |  | 250.91 |  | 0.302
CC(=O)N[C@H]1C[C@@]2(C1)C(=O)N(Cc1nc3cc(Cl)ccc3n1CCCC#N)c1ccccc12 [Compound 146, N-((1r,3r)-1′-((5-chloro-1-(3-cyanopropyl)-1H-benzo[d]imidazol-2-yl)methyl)-2′-oxospiro[cyclobutane-1,3′-indolin]-3-yl)acetamide] |  | 194.77 |  | 0.501
N#CCCCn1c(CN2C(=O)C3(CCN(C(=O)OCCO)CC3)c3ccncc32)cc2cc(Cl)ccc21 [Compound 147, 2-Hydroxyethyl 1′-{[5-chloro-1-(3-cyanopropyl)-1H-indol-2-yl]methyl}-2′-oxo-1′,2′-dihydro-1H-spiro[piperidine-4,3′-pyrrolo[2,3-c]pyridine]-1-carboxylate] |  | 144.55 |  | 0.055
CC(C)(O)C(=O)N1CCC2(CC1)C(=O)N(Cc1nc3cc(Cl)ccc3n1CCCCO)c1cnccc12 [Compound 164, 1′-{[5-Chloro-1-(4-hydroxybutyl)-1H-benzimidazol-2-yl]methyl}-1-(2-hydroxy-2-methylpropanoyl)spiro[piperidine-4,3′-pyrrolo[2,3-c]pyridin]-2′(1′H)-one] |  | 191.87 |  | 0.126
CC(C)(O)C(=O)N1CC2(C1)C(=O)N(Cc1cc3cc(Cl)ccc3n1CCCCO)c1ccccc12 [Compound 166, 1′-{[5-Chloro-1-(4-hydroxybutyl)-1H-indol-2-yl]methyl}-1-(2-hydroxy-2-methylpropanoyl)spiro[azetidine-3,3′-indol]-2′(1′H)-one] |  | 157.11 |  | 0.537
CC(C)(O)C(=O)N1CCC2(CC1)C(=O)N(Cc1nc3cc(Cl)ccc3n1CCCCF)c1cnccc12 [Compound 169, 1′-{[5-Chloro-1-(4-fluorobutyl)-1H-benzimidazol-2-yl]methyl}-1-(2-hydroxy-2-methylpropanoyl)spiro[piperidine-4,3′-pyrrolo[2,3-c]pyridin]-2′(1′H)-one] |  | 222.72 |  | 0.0275
CC(=O)NS(=O)(=O)N1CCC2(CC1)C(=O)N(Cc1cc3cc(Cl)ccc3n1CCCC#N)c1cnccc12 [Compound 172, N-[(1′-{[5-Chloro-1-(3-cyanopropyl)-1H-indol-2-yl]methyl}-2′-oxo-1′,2′-dihydro-1H-spiro[piperidine-4,3′-pyrrolo[2,3-c]pyridin]-1-yl)sulfonyl]acetamide] |  | 230.52 |  | 0.0661
